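Test compounds were applied to cells in 96-well plates for 48 hours at 5 doses. TGI denotes the concentration required for complete inhibition of growth.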
Columns and labels:
Test in all cases: NCI-60 cell line screen, 48 h
786-0 renal = tested on: 786-0 renal
A498 renal = tested on: A498 renal
A549 NSCLC = tested on: A549 NSCLC
ACHN renal = tested on: ACHN renal
BT-549 breast = tested on: BT-549 breast
CAKI-1 renal = tested on: CAKI-1 renal
CCRF-CEM leukemia = tested on: CCRF-CEM leukemia
COLO 205 colon = tested on: COLO 205 colon
DU-145 prostate = tested on: DU-145 prostate
EKVX NSCLC = tested on: EKVX NSCLC
HCC-2998 colon = tested on: HCC-2998 colon
HCT-116 colon = tested on: HCT-116 colon
HCT-15 colon = tested on: HCT-15 colon
HL-60(TB) leukemia = tested on: HL-60(TB) leukemia
HOP-62 NSCLC = tested on: HOP-62 NSCLC
HOP-92 NSCLC = tested on: HOP-92 NSCLC
HS 578T breast = tested on: HS 578T breast
HT29 colon = tested on: HT29 colon
IGROV1 ovarian = tested on: IGROV1 ovarian
K-562 leukemia = tested on: K-562 leukemia
KM12 colon = tested on: KM12 colon
LOX IMVI melanoma = tested on: LOX IMVI melanoma
M14 melanoma = tested on: M14 melanoma
MALME-3M melanoma = tested on: MALME-3M melanoma
MCF7 breast = tested on: MCF7 breast
MDA-MB-231 breast = tested on: MDA-MB-231 breast
MDA-MB-435 = tested on: MDA-MB-435
MDA-N = tested on: MDA-N
MOLT-4 leukemia = tested on: MOLT-4 leukemia
NCI-H226 lung = tested on: NCI-H226 lung
NCI-H23 lung = tested on: NCI-H23 lung
NCI-H460 lung = tested on: NCI-H460 lung
NCI/ADR-RES ovarian = tested on: NCI/ADR-RES ovarian
OVCAR-3 ovarian = tested on: OVCAR-3 ovarian
OVCAR-4 ovarian = tested on: OVCAR-4 ovarian
OVCAR-5 ovarian = tested on: OVCAR-5 ovarian
OVCAR-8 ovarian = tested on: OVCAR-8 ovarian
PC-3 prostate = tested on: PC-3 prostate
RPMI-8226 leukemia = tested on: RPMI-8226 leukemia
RXF 393 renal = tested on: RXF 393 renal
SF-268 CNS = tested on: SF-268 CNS
SF-295 CNS = tested on: SF-295 CNS
SF-539 CNS = tested on: SF-539 CNS
SK-MEL-2 melanoma = tested on: SK-MEL-2 melanoma
SK-MEL-28 melanoma = tested on: SK-MEL-28 melanoma
SK-MEL-5 melanoma = tested on: SK-MEL-5 melanoma
SK-OV-3 ovarian = tested on: SK-OV-3 ovarian
SN12C renal = tested on: SN12C renal
SNB-19 CNS = tested on: SNB-19 CNS
SNB-75 CNS = tested on: SNB-75 CNS
SR leukemia = tested on: SR leukemia
SW-620 colon = tested on: SW-620 colon
T-47D breast = tested on: T-47D breast
TK-10 renal = tested on: TK-10 renal
U251 CNS = tested on: U251 CNS
UACC-257 melanoma = tested on: UACC-257 melanoma
UACC-62 melanoma = tested on: UACC-62 melanoma
UO-31 renal = tested on: UO-31 renal
NCI-H522 lung = tested on: NCI-H522 lung

Measured: TGI

c1ccc2oc(-c3ccc(-c4nc5ccccc5o4)c4c3CC4)nc2c1
> 100 µM: 786-0 renal | A498 renal | A549 NSCLC | ACHN renal | BT-549 breast | CAKI-1 renal | CCRF-CEM leukemia | COLO 205 colon | DU-145 prostate | EKVX NSCLC | HCC-2998 colon | HCT-116 colon | HCT-15 colon | HL-60(TB) leukemia | HOP-62 NSCLC | HOP-92 NSCLC | HS 578T breast | HT29 colon | IGROV1 ovarian | K-562 leukemia | KM12 colon | LOX IMVI melanoma | M14 melanoma | MALME-3M melanoma | MCF7 breast | MDA-MB-231 breast | MDA-MB-435 | MDA-N | MOLT-4 leukemia | NCI-H226 lung | NCI-H23 lung | NCI-H460 lung | NCI/ADR-RES ovarian | OVCAR-3 ovarian | OVCAR-4 ovarian | OVCAR-5 ovarian | OVCAR-8 ovarian | PC-3 prostate | RPMI-8226 leukemia | RXF 393 renal | SF-268 CNS | SF-295 CNS | SF-539 CNS | SK-MEL-2 melanoma | SK-MEL-28 melanoma | SK-MEL-5 melanoma | SK-OV-3 ovarian | SN12C renal | SNB-19 CNS | SNB-75 CNS | SR leukemia | SW-620 colon | T-47D breast | TK-10 renal | U251 CNS | UACC-257 melanoma | UACC-62 melanoma | UO-31 renal

CCOC(=O)/C=C/CCO[Si](C)(C)C(C)(C)C
> 100 µM: 786-0 renal | A498 renal | A549 NSCLC | ACHN renal | BT-549 breast | CAKI-1 renal | CCRF-CEM leukemia | COLO 205 colon | DU-145 prostate | EKVX NSCLC | HCC-2998 colon | HCT-116 colon | HCT-15 colon | HOP-62 NSCLC | HOP-92 NSCLC | HS 578T breast | HT29 colon | IGROV1 ovarian | K-562 leukemia | KM12 colon | LOX IMVI melanoma | MALME-3M melanoma | MCF7 breast | MDA-MB-231 breast | MDA-MB-435 | MDA-N | MOLT-4 leukemia | NCI-H226 lung | NCI-H23 lung | NCI-H460 lung | NCI-H522 lung | NCI/ADR-RES ovarian | OVCAR-3 ovarian | OVCAR-4 ovarian | OVCAR-5 ovarian | OVCAR-8 ovarian | PC-3 prostate | RPMI-8226 leukemia | RXF 393 renal | SF-268 CNS | SF-295 CNS | SF-539 CNS | SK-MEL-2 melanoma | SK-MEL-28 melanoma | SK-MEL-5 melanoma | SK-OV-3 ovarian | SN12C renal | SNB-19 CNS | SNB-75 CNS | SR leukemia | SW-620 colon | T-47D breast | TK-10 renal | U251 CNS | UACC-257 melanoma | UACC-62 melanoma | UO-31 renal

From PubChem BioAssay (NCI)
